The text below walks through data of ChEMBL document CHEMBL1136267, “Design and synthesis of novel PPARalpha/gamma/delta triple activators using a known PPARalpha/gamma dual activator as structural template” (Bioorg Med Chem Lett, 2003).

The structures appear in SMILES notation.

In experiment [1] the target is T1, Peroxisome proliferator-activated receptor alpha (Homo sapiens, UniProt Q07869).
T1 sequence (Q07869 whole entry): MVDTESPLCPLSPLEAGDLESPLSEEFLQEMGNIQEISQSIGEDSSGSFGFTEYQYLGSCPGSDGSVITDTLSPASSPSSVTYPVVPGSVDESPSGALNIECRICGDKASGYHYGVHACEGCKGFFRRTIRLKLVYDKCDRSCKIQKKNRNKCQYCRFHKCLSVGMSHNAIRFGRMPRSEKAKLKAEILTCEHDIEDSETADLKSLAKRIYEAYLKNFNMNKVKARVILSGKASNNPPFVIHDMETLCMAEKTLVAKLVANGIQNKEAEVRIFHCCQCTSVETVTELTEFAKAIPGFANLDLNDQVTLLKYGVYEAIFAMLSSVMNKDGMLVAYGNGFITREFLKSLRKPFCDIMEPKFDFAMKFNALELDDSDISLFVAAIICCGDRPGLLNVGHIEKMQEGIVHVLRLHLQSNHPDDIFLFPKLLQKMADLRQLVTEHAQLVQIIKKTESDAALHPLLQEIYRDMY
Description: In vitro activation of human peroxisome proliferator activated receptor alpha

The target of experiment [2] is T2, Peroxisome proliferator-activated receptor delta (Homo sapiens, UniProt Q03181).
T2 sequence (Q03181 whole entry): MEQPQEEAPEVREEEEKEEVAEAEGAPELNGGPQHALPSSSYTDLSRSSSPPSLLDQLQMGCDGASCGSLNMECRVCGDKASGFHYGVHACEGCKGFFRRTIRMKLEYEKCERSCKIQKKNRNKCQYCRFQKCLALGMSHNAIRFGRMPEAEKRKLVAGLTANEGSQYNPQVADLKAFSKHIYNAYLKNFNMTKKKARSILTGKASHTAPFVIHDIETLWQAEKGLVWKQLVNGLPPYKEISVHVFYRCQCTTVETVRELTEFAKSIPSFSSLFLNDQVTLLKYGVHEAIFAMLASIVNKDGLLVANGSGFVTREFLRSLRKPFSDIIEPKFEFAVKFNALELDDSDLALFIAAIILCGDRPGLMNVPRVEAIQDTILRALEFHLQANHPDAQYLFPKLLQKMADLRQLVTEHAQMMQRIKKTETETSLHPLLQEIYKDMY
The experiment in a line: In vitro activation of human peroxisome proliferator activated receptor delta (PPAR delta).

Experiment [3] addresses T3, Peroxisome proliferator-activated receptor gamma (Homo sapiens, UniProt P37231).
T3 sequence (P37231 whole entry): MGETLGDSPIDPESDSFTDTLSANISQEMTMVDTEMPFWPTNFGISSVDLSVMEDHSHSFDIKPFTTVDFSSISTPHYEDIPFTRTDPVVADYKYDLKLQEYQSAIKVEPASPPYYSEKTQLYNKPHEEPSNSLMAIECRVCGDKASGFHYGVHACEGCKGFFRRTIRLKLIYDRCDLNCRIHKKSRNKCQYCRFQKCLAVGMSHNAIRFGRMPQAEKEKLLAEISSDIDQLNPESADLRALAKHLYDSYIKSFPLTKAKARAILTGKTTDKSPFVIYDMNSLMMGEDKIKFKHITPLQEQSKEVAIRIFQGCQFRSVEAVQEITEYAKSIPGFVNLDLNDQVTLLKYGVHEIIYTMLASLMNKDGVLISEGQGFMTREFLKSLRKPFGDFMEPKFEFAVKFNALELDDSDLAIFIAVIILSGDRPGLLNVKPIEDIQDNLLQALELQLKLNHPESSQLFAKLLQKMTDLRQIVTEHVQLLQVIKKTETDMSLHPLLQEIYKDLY
The experiment in a line: In vitro activation of human peroxisome proliferator activated receptor gamma (PPAR gamma).

Regarding `CCO[C@@H](Cc1ccc(OCC=C(c2ccc(C)cc2)c2ccc(C)cc2)cc1)C(=O)O`, the half-maximal effective concentration (EC50) came to 700 nM in experiment [1], 2000 nM in experiment [2] and 3100 nM in experiment [3].

As for `CCO[C@@H](Cc1ccc(OCC=C(c2ccc(OC)cc2)c2ccc(OC)cc2)cc1)C(=O)O`, the EC50 was 2200 nM in experiment [1], 700 nM in experiment [2] and 2200 nM in experiment [3].

`CCO[C@@H](Cc1ccc(OC/C=C(/c2ccccc2)c2ccc(F)cc2)cc1)C(=O)O`: the EC50 in experiment [1] is 3200 nM; in experiment [2] it was 3400 nM; in experiment [3] it was 4000 nM.

On to `CCO[C@@H](Cc1ccc(OCC=C(c2ccccc2)c2ccccc2)cc1)C(=O)O`, for which the EC50 is 6400 nM in experiment [1], 5700 nM in experiment [2] and 2700 nM in experiment [3].

In the case of `CCO[C@@H](Cc1ccc(OC/C=C(\c2ccccc2)c2ccc(-c3ccccc3)cc2)cc1)C(=O)O`, the EC50 in experiment [1] was 900 nM; in experiment [2], 2200 nM; in experiment [3], 600 nM.

On to `CCO[C@@H](Cc1ccc(OCCN(c2ccccc2)c2ccccc2)cc1)C(=O)O`, for which the results for the EC50 in experiment [1] and in experiment [3] were 4500 nM and 3300 nM, respectively.

Consider `CCO[C@@H](Cc1ccc(OC/C=C(\c2ccccc2)c2ccc(F)cc2)cc1)C(=O)O`, for which the EC50 stood at 5300 nM in experiment [1], 8300 nM in experiment [2] and 8500 nM in experiment [3].

Consider `CCO[C@@H](Cc1ccc(OC/C=C(/c2ccccc2)c2ccc(-c3ccccc3)cc2)cc1)C(=O)O`, for which the EC50 was determined as 700 nM in experiment [1], 2200 nM in experiment [2] and 1700 nM in experiment [3].

As for `CCO[C@@H](Cc1ccc(OC/C=C(/c2ccccc2)c2ccc(-c3ccco3)cc2)cc1)C(=O)O`, the EC50 in experiment [1] came to 400 nM; in experiment [2], 2000 nM; in experiment [3] it was 2000 nM.

As to `CCO[C@@H](Cc1ccc(OCC=C(c2ccc(-c3ccco3)cc2)c2ccc(-c3ccco3)cc2)cc1)C(=O)O`, the EC50 in experiment [1] came to 2000 nM; in experiment [2], 1000 nM; in experiment [3], 2900 nM.

`CCO[C@@H](Cc1ccc(OC/C=C(\c2ccccc2)c2ccc(Br)cc2)cc1)C(=O)O`: the EC50 was 1100 nM in experiment [1], 900 nM in experiment [2] and 1500 nM in experiment [3].

In the case of `CCO[C@@H](Cc1ccc(OCC=C(c2ccc(Br)cc2)c2ccc(Br)cc2)cc1)C(=O)O`, the values for the EC50 in experiment [1], in experiment [2] and in experiment [3] were 300 nM, 400 nM and 900 nM, respectively.

On to `CCO[C@@H](Cc1ccc(OC/C=C(/c2ccccc2)c2ccc(Br)cc2)cc1)C(=O)O`, for which the EC50 in experiment [1] stood at 2200 nM; in experiment [2], 3400 nM; in experiment [3], 4300 nM.

Regarding `CCO[C@@H](Cc1ccc(OCC=C(c2ccc(-c3ccccc3)cc2)c2ccc(-c3ccccc3)cc2)cc1)C(=O)O`, the EC50 came out at 1100 nM in experiment [1], 500 nM in experiment [2] and 300 nM in experiment [3].

As to `CCO[C@@H](Cc1ccc(OC/C=C(\c2ccccc2)c2ccc(-c3ccco3)cc2)cc1)C(=O)O`, the EC50 was 300 nM in experiment [1], 600 nM in experiment [2] and 800 nM in experiment [3].

The EC50 is the concentration needed to bring the measured effect to its halfway point. A lower EC50 goes with greater potency.
